US6743423B1, “Use of adeno-associated viruses for decreasing the radiotherapy-induced or chemotherapy- induced resistance in cancer patients” (Deutsches Krebsforschungszentrum Stiftung des Offentlichen …, priority 1998, dated 2004)

Tests used:
Assay type in all cases: cell-based, human
[1] = tested on: NCI-H69; experiment: MTT proliferation assay, SCLC cell line NCI-H69 (chemotherapeutic agents with or without AAV-2 infection); conditions: AAV-2 infection 10^4 per cell vs mock infection
Experimental: (§1) Small cell lung carcinoma cell lines (NCI-H69, NCI-H164, NCI-H209, and NCI-H446) (Cancer Res., 1980, 40, 3502-3507; Cancer Res., 1985, 45, 2913-2923) were cultured in RPMI-1640 medium (Eurobio, Raunheim, Germany). HeLa cells were cultured in DMEN (Eurobio, Raunheim, Germany). All growth media were supplemented with glutamine (Eurobio, 1%), antibiotics (penicillin and streptomycin) and 10% heat-inactivated fetal calf serum (PAA; Liz, Austria). The cultures were incubated at 37° C. in a damp atmosphere with 5% CO2 and tested for mycoplasma contaminations at regular intervals.
The adeno-associated virus type 2 (AAV-2) was replicated in HeLa cells using, adenovirus type 2 (Ad-2) as a helper. […]
The proliferation of the SLCL cells after the infection with AAV-2 and/or treatment with chemotherapeutic agents was determined by the modified MTT test (J. Immunol. Methods, 1983, 56, 55-63). […] The precipitated proteins were pelleted by centrifugation (1000 rpm, 15 min), and 200 ul samples of the supernatant were measured to determine the optical density at 540 nm (OD540), OD690 being used as a reference and a Titertek Multiskan plus MKII densitometer being employed (Lab Systems, Finland). […]
(§2) The AAV-2-infected cells (MOI values as indicated) or mock-infected cells were placed in plates having 24 wells and treated with cisplatin. After six or eight days, the relative proliferation was determined. […]

[2] = tested on: NCI-H146; experiment: MTT proliferation assay, SCLC cell line NCI-H146 (chemotherapeutic agents with or without AAV-2 infection); conditions: for Sensitization factor (A/Ao)* 10^4 Ip.AAV/Cell: AAV-2 infection 10^4 per cell vs mock infection
[3] = tested on: NCI-H209; experiment: MTT proliferation assay, SCLC cell line NCI-H209 (chemotherapeutic agents with or without AAV-2 infection); conditions: for Sensitization factor (A/Ao)* 10^4 Ip.AAV/Cell: AAV-2 infection 10^4 per cell vs mock infection
Experimental: as §1
(§3) The adeno-associated virus type 2 (AAV-2) was replicated in HeLa cells using, adenovirus type 2 (Ad-2) as a helper. AAV was purified in a cesium-chloride gradient and titrated as described in J. Gen. Virol., 1994, 74, 2655-2662. The adenovirus type 2 inocula were clarified supernatants of Ad-2-infected HeLa cells.
(§4) The SCLC cells were suspended in PBS and incubated with purified AAV-2 in the indicated multiplicities of infection (MOI). […]
(§5) The proliferation of the SLCL cells after the infection with AAV-2 and/or treatment with chemotherapeutic agents was determined by the modified MTT test (J. Immunol. Methods, 1983, 56, 55-63). […] The precipitated proteins were pelleted by centrifugation (1000 rpm, 15 min), and 200 ul samples of the supernatant were measured to determine the optical density at 540 nm (OD540), OD690 being used as a reference and a Titertek Multiskan plus MKII densitometer being employed (Lab Systems, Finland).
(§6) The relative proliferation (A/Ao) was defined as the ratio of the absorption (A) measured in the supernatant of AAV-2-infected and/or pharmacon-treated cells, compared with the absorption measured for the supernatant of the mock-infected cells and untreated control cells (Ao). […]
as §2

[4] = tested on: NCI-H446; experiment: MTT proliferation assay, SCLC cell line NCI-H446 (chemotherapeutic agents with or without AAV-2 infection); conditions: for Sensitization factor (A/Ao)* 10^4 Ip.AAV/Cell: AAV-2 infection 10^4 per cell vs mock infection
Experimental: as §1, §3, §4, §5, §6, §2

[5] = cells treated only with cisplatin at IC50

SMILES	Sensitization factor (A/Ao)* 10^4 Ip.AAV/Cell [1]	Sensitization factor (A/Ao)* 10^4 Ip.AAV/Cell [2]	Sensitization factor (A/Ao)* 10^4 Ip.AAV/Cell [3]	Relative proliferation (A/Ao) [3, 5]	Sensitization factor (A/Ao)* 10^4 Ip.AAV/Cell [4]	Relative proliferation (A/Ao) [4, 5]	Resistance/susceptibility of the cell line to the agent [2]
N.N.[Cl][Pt][Cl] [Cisplatin, cisplatin]	1.43	1.37	2.33	0.5	2.50	0.59	–
COc1cc([C@@H]2c3cc4c(cc3[C@@H](O[C@@H]3O[C@@H]5CO[C@@H](C)O[C@H]5[C@H](O)[C@H]3O)[C@H]3COC(=O)[C@H]23)OCO4)cc(OC)c1O [Etoposide, etoposide]	1.30	1.38	2.12	–	3.00	–	highly susceptible
